Experimental data taken from patent US10800791B2, “Triazole ACC inhibitors and uses thereof” (Gilead Apollo, LLC, priority 2015, dated 2020).
Converted amounts (≈) assume the structure as drawn. Read-outs that look alike come from different tables or passages of the source.

Assays:
[1] = target: fungal (fACC2) (UniProt Q00955); settings: read-out: fACC2 (in vitro ACC2 Inhibition Assay, IC50), ADP-Glo, 5 nM ACC2, 20 μM ATP, 20 μM acetyl-CoA
[2] = system: C. krusei; assay: Antifungal Activity Assay (broth microtiter MIC), C. krusei; format: cell-based, Candida krusei; settings: 3 replicates, MIC recorded at 48 h; for MIC: Pichia kudriavzevii, ATCC6258, 48 h, ATCC 6258, read-out: MIC, C. krusei ATCC 6258
Method: (§1) Compounds of the present invention were evaluated in an Antifungal Activity Assay. An exemplary procedure for the assay, which measures the susceptibility of various Candida species to antifungal compounds, follows. Compounds to be tested (including fluconazole and amphotericin B) were dissolved in DMSO to obtain a solution having a concentration of 1 mg/mL. These stock solutions were sterile filtered using a 0.22 um nylon syringe filter, then diluted in sterile water to achieve a final concentration of 128 μg/mL.
(§2) All species were grown from frozen stock by directly plating on to freshly prepared Sabouraud Dextrose agar (BD, Difco) and incubated overnight in ambient air at 35° C. for 24 h. A direct suspension was prepared in RPMI 1640+MOPS (Lonza, Biowhittaker) by taking individual colonies from the overnight cultures using sterile swabs soaked in sterile saline. The concentration of the suspension was determined using pre-determined standard curves. These suspensions were then diluted down to 5×10^3 CFU/mL to achieve a final concentration of 2.5×10^3 CFU/mL once added to the microtiter plate as per CLSI guidelines (M27-A3, Vol. 28 No. 14).
(§3) Broth microtiter MIC challenge plates were prepared following CLSI guidelines (M27-A3, Vol. 28 No. 14). The original CLSI guidelines focused on reading Candida MICs after 48 h of incubation. As reading after only 24 h offers a clear advantage of patient care, QC limits are being established for all drugs at 24 h. That being said there are no known interpretive breakpoints for amphotericin B at 24 h and the current fluconazole interpretive breakpoints are based on a 48 h reading. The MICs for the test compounds were recorded at 48 h. All MIC determinations were achieved by visually comparing the growth found in the antibiotic challenged wells to that of the growth control.

[3] = target: human (hACC2) (Homo sapiens, UniProt O00763); assay: In vitro ACC inhibition assay (ADP-Glo), hACC2; format: biochemical; settings: 5 nM ACC2, 20 μM ATP, 20 μM acetyl-CoA
Method: The detailed procedure is as follows. […] 10 μL ADP glo reagent was added. […] 20 μL kinase detection reagent was added.

[4] = system: C. albicans; assay: Antifungal Activity Assay (broth microtiter MIC), C. albicans; format: cell-based, Candida albicans; settings: 3 replicates, MIC recorded at 48 h; for MIC: Candida albicans, ATCC90028, 48 h, ATCC 90028, read-out: MIC, C. albicans ATCC 90028
Method: as §1, §2, §3

[5] = system: C. parapsilosis; assay: Antifungal Activity Assay (broth microtiter MIC), C. parapsilosis; format: cell-based, Candida parapsilosis; settings: 3 replicates, MIC recorded at 48 h; for MIC: Lodderomyces parapsilosis, ATCC22019, 48 h, ATCC 22019, read-out: MIC, C. parapsilosis ATCC 22019
Method: as §1, §2, §3

Chain of human (hACC2) (O00763 whole entry): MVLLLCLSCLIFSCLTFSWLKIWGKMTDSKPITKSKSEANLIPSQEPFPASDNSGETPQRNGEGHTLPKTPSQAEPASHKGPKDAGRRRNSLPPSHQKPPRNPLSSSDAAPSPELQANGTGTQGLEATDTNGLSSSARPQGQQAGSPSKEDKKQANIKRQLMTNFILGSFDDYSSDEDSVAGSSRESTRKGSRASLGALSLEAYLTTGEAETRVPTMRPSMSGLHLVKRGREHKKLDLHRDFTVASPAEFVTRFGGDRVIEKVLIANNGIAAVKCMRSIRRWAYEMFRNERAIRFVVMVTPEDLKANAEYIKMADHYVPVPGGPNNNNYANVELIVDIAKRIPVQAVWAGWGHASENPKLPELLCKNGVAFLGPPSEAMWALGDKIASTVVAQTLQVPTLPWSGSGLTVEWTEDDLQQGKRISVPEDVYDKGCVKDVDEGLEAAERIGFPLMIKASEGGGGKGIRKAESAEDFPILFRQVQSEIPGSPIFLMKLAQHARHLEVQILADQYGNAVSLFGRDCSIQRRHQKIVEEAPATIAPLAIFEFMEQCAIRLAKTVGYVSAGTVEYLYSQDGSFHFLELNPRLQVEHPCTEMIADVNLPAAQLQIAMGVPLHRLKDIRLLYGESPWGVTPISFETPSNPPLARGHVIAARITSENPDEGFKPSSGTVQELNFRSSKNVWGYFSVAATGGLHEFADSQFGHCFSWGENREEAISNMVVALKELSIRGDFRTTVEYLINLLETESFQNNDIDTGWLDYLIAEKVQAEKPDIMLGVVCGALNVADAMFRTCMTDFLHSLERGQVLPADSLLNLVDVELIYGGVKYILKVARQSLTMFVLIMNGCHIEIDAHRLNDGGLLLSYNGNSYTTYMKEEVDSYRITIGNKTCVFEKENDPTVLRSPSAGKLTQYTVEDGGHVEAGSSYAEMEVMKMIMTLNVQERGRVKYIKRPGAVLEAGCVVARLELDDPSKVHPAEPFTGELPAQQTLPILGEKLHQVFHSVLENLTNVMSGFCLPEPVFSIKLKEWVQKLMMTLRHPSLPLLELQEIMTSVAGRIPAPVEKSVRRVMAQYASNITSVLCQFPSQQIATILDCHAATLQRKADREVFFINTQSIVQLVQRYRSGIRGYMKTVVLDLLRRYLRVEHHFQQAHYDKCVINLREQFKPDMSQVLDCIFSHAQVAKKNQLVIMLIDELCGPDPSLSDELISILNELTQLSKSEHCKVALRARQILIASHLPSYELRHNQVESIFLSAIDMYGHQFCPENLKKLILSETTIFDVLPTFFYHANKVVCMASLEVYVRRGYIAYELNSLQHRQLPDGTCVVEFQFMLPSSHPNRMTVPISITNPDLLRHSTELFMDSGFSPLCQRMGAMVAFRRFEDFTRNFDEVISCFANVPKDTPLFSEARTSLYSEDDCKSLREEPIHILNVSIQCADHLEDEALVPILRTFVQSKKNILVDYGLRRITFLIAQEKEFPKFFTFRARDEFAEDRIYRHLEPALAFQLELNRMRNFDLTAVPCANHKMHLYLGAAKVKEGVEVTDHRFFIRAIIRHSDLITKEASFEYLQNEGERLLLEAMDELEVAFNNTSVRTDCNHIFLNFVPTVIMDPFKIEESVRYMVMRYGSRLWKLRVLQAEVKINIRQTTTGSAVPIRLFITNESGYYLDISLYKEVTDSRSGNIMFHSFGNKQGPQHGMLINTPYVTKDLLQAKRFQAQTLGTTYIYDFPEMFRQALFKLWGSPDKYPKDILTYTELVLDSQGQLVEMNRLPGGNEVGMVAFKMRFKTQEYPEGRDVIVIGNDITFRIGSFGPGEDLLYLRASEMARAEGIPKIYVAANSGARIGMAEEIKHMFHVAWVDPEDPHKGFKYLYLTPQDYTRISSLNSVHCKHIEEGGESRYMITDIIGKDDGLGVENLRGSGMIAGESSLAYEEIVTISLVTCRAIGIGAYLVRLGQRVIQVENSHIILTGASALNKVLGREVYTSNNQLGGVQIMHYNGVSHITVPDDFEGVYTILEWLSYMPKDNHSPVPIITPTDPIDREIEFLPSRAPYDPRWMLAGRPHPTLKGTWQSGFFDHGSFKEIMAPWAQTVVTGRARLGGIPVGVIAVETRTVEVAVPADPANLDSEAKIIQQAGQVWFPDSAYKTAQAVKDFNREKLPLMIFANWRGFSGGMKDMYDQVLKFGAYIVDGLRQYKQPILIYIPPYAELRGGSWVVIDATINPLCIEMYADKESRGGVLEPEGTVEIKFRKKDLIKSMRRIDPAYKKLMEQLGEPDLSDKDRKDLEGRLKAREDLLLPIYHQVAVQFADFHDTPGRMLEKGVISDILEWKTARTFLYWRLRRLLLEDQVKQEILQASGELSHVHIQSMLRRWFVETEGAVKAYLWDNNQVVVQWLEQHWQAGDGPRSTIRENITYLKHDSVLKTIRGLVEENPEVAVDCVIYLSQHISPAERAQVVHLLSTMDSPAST
Chain of fungal (fACC2) (Q00955 whole entry): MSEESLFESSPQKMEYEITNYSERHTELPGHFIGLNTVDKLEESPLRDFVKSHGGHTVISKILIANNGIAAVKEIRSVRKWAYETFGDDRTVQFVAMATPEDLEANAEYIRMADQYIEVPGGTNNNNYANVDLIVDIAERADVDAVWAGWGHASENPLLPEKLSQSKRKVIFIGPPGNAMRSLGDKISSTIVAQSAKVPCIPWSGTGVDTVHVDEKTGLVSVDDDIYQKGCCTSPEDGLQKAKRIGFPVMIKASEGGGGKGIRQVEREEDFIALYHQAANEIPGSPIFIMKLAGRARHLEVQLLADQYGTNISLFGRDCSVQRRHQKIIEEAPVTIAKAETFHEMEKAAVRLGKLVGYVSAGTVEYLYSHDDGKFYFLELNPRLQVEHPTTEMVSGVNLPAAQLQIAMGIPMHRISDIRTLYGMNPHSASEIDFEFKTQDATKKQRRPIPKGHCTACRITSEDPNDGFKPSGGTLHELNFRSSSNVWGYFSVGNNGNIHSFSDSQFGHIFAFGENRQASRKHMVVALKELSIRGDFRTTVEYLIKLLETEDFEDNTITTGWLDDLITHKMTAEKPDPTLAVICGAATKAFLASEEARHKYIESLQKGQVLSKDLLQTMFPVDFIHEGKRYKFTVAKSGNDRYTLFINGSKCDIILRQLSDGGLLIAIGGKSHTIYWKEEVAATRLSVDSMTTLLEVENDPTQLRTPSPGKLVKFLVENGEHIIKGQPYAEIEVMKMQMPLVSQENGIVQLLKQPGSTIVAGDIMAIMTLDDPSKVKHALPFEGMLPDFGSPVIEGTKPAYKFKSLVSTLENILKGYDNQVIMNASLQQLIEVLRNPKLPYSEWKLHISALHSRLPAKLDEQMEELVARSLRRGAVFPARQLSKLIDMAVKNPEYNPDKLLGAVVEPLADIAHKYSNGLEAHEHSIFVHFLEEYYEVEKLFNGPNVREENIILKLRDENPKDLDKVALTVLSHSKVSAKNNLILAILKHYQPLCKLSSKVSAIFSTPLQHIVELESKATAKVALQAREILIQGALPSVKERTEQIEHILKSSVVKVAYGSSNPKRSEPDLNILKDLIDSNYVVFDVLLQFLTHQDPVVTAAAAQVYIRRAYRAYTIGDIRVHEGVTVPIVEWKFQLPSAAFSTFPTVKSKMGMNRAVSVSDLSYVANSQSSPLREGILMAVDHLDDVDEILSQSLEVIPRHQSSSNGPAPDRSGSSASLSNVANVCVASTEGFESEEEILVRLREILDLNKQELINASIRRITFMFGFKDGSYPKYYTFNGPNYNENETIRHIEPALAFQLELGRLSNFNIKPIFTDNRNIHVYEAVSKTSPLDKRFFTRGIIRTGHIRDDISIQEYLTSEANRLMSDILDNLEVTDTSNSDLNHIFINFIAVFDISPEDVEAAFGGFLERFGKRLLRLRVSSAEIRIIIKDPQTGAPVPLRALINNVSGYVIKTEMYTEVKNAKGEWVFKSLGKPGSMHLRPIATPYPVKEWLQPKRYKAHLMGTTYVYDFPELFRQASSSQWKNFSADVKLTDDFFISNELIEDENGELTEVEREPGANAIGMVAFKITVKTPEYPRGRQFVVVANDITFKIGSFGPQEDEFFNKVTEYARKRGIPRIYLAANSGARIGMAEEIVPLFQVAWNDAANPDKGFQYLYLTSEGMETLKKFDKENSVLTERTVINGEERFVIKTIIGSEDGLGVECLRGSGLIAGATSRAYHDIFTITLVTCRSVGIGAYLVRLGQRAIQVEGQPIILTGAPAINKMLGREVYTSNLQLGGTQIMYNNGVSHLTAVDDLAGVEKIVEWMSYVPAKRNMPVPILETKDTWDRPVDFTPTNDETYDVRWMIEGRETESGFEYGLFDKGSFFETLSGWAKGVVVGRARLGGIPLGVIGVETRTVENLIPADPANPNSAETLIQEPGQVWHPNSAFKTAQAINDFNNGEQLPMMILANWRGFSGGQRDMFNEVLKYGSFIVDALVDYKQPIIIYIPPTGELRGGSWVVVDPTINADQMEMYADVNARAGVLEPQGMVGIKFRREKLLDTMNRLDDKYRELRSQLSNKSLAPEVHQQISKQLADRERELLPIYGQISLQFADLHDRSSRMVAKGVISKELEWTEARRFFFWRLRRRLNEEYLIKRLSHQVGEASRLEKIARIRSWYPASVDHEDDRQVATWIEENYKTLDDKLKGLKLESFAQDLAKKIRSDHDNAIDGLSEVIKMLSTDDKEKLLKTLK

| SMILES | IC50 ([1]; Table 2a) [nM] | IC50 ([1]; Table 2b, additional results) [nM] | MIC ([2]; Table 3a) [µg/mL] | MIC ([2]; Table 3b (additional results)) [µg/mL] | IC50 ([3]; Table 2a) [nM] | IC50 ([3]; Table 2b, additional results) [nM] | MIC ([4]; Table 3a) [µg/mL] | MIC ([4]; Table 3b (additional results)) [µg/mL] | MIC ([5]; Table 3a) [µg/mL] | MIC ([5]; Table 3b (additional results)) [µg/mL] | MIC, C. krusei ATCC 6258 ([2]; Table 3a) | MIC, C. krusei ATCC 6258 ([2]; Table 3b (additional results)) | MIC, C. albicans ATCC 90028 ([4]; Table 3a) | MIC, C. parapsilosis ATCC 22019 ([5]; Table 3a) | MIC, C. albicans ATCC 90028 ([4]; Table 3b (additional results)) | MIC, C. parapsilosis ATCC 22019 ([5]; Table 3b (additional results)) |
| --- | --- | --- | --- | --- | --- | --- | --- | --- | --- | --- | --- | --- | --- | --- | --- | --- |
| COc1ccc(F)cc1[C@H](Cn1c(=O)n(C(C)(C)C(=O)NC2CCCCC2)c(=O)c2c(C)c(-n3nccn3)sc21)OCC(C)=O [Compound I-99] | 1 to 5 | 1 to 5 | 0.06 to 0.24 (≈ 0.0936 to 0.375 µM) | 0.25 to 1 (≈ 0.39 to 1.56 µM) | 1 to 5 | 1 to 5 | 0.25 to 1 (≈ 0.39 to 1.56 µM) | 1.01 to 2 (≈ 1.58 to 3.12 µM) | 0.25 to 1 (≈ 0.39 to 1.56 µM) | 0.25 to 1 (≈ 0.39 to 1.56 µM) | – | – | – | – | – | – |
| COCCO[C@@H](Cn1c(=O)n(C(C)(C)C(=O)NC2CCC2)c(=O)c2c(C)c(-n3nccn3)sc21)c1cc(F)ccc1OC [Compound I-100] | 1 to 5 | 1 to 5 | – | – | 1 to 5 | 1 to 5 | – | 2.01 to 4 (≈ 3.27 to 6.51 µM) | – | 0.25 to 1 (≈ 0.407 to 1.63 µM) | AA (MIC of 0.06-0.24 μg/mL) | A (MIC of 0.25-1.0 μg/mL) | A (MIC of 0.25-1.0 μg/mL) | A (MIC of 0.25-1.0 μg/mL) | – | – |
| COc1ccccc1[C@H](Cn1c(=O)n(C(C)(C)C(=O)N2CC=CC2)c(=O)c2c(C)c(-n3nccn3)sc21)OC1CCOCC1 [Compound I-101] | 1 to 5 | 1 to 5 | 0.25 to 1 (≈ 0.403 to 1.61 µM) | 1.01 to 2 (≈ 1.63 to 3.22 µM) | 5 to 10 | 5 to 10 | 0.25 to 1 (≈ 0.403 to 1.61 µM) | 1.01 to 2 (≈ 1.63 to 3.22 µM) | 0.25 to 1 (≈ 0.403 to 1.61 µM) | 1.01 to 2 (≈ 1.63 to 3.22 µM) | – | – | – | – | – | – |
| COCCO[C@@H](Cn1c(=O)n(C(C)(C)C(=O)NC2CCC2)c(=O)c2c(C)c(-n3nccn3)sc21)c1cc(F)ccc1OC [Compound I-102] | 1 to 5 | 1 to 5 | – | – | 1 to 5 | 1 to 5 | – | – | – | – | A (MIC of 0.25-1.0 μg/mL) | A (MIC of 0.25-1.0 μg/mL) | A (MIC of 0.25-1.0 μg/mL) | A (MIC of 0.25-1.0 μg/mL) | C (MIC of 2.01-4.0 μg/mL) | A (MIC of 0.25-1.0 μg/mL) |
| COCCO[C@@H](Cn1c(=O)n(C(C)(C)C(=O)NC2CCCCC2)c(=O)c2c(C)c(-n3nccn3)sc21)c1cc(F)ccc1OC [Compound I-103] | 1 to 5 | 1 to 5 | 0.25 to 1 (≈ 0.389 to 1.56 µM) | 0.25 to 1 (≈ 0.389 to 1.56 µM) | 10 to 40 | 10 to 40 | 1.1 to 2 (≈ 1.71 to 3.11 µM) | 1.01 to 2 (≈ 1.57 to 3.11 µM) | 0.25 to 1 (≈ 0.389 to 1.56 µM) | 0.25 to 1 (≈ 0.389 to 1.56 µM) | – | – | – | – | – | – |
| COc1ccc(F)cc1[C@H](Cn1c(=O)n(C(C)(C)C(=O)NC(C)C)c(=O)c2c(C)c(-n3nccn3)sc21)OCCC(C)=O [Compound I-104] | 1 to 5 | 1 to 5 | 0.06 to 0.24 (≈ 0.0976 to 0.39 µM) | 0.25 to 1 (≈ 0.407 to 1.63 µM) | 1 to 5 | 1 to 5 | 0.25 to 1 (≈ 0.407 to 1.63 µM) | 0.25 to 1 (≈ 0.407 to 1.63 µM) | 0.25 to 1 (≈ 0.407 to 1.63 µM) | 0.25 to 1 (≈ 0.407 to 1.63 µM) | – | – | – | – | – | – |
| COc1ccc(F)cc1[C@H](Cn1c(=O)n(C(C)(C)C(=O)NC2CCC2)c(=O)c2c(C)c(-n3nccn3)sc21)OCCC(C)=O [Compound I-105] | 0.4 to 1 | 0.3 to 1 | 0.06 to 0.24 (≈ 0.0957 to 0.383 µM) | 0.25 to 1 (≈ 0.399 to 1.6 µM) | 1 to 5 | 1 to 5 | 0.25 to 1 (≈ 0.399 to 1.6 µM) | 1.01 to 2 (≈ 1.61 to 3.19 µM) | 0.25 to 1 (≈ 0.399 to 1.6 µM) | 0.25 to 1 (≈ 0.399 to 1.6 µM) | – | – | – | – | – | – |
| COc1ccc(F)cc1[C@H](Cn1c(=O)n(C(C)(C)C(=O)NC2CCCCC2)c(=O)c2c(C)c(-n3nccn3)sc21)OCCC(C)=O [Compound I-106] | 1 to 5 | 1 to 5 | 0.25 to 1 (≈ 0.382 to 1.53 µM) | 0.25 to 1 (≈ 0.382 to 1.53 µM) | 5 to 10 | 5 to 10 | 1.1 to 2 (≈ 1.68 to 3.05 µM) | 1.01 to 2 (≈ 1.54 to 3.05 µM) | 0.25 to 1 (≈ 0.382 to 1.53 µM) | 0.25 to 1 (≈ 0.382 to 1.53 µM) | – | – | – | – | – | – |
| Cc1c(-n2nccn2)sc2c1c(=O)n(C(C)(C)C(=O)NC(C)C)c(=O)n2C[C@H](OC1CCOCC1)c1cc(F)ccc1OCc1ccccc1 [Compound I-107] | 1 to 5 | 1 to 5 | 0.25 to 1 (≈ 0.355 to 1.42 µM) | 0.25 to 1 (≈ 0.355 to 1.42 µM) | 5 to 10 | 5 to 10 | 0.25 to 1 (≈ 0.355 to 1.42 µM) | 0.25 to 1 (≈ 0.355 to 1.42 µM) | 1.1 to 2 (≈ 1.56 to 2.84 µM) | 0.25 to 1 (≈ 0.355 to 1.42 µM) | – | – | – | – | – | – |
| Cc1c(-n2nccn2)sc2c1c(=O)n(C(C)(C)C(=O)NC(C)C)c(=O)n2C[C@H](OC1CCOCC1)c1cc(F)ccc1OCC1COC1 [Compound I-108] | 1 to 5 | 1 to 5 | 0.25 to 1 (≈ 0.365 to 1.46 µM) | 0.25 to 1 (≈ 0.365 to 1.46 µM) | 1 to 5 | 1 to 5 | 0.25 to 1 (≈ 0.365 to 1.46 µM) | 0.25 to 1 (≈ 0.365 to 1.46 µM) | 0.25 to 1 (≈ 0.365 to 1.46 µM) | 0.25 to 1 (≈ 0.365 to 1.46 µM) | – | – | – | – | – | – |
| COCCOc1ccc(F)cc1[C@H](Cn1c(=O)n(C(C)(C)C(=O)N2CCCC2)c(=O)c2c(C)c(-n3nccn3)sc21)OC1CCOCC1 [Compound I-109] | 1 to 5 | 1 to 5 | 0.25 to 1 (≈ 0.365 to 1.46 µM) | 1.01 to 2 (≈ 1.47 to 2.92 µM) | 1 to 5 | 1 to 5 | 0.25 to 1 (≈ 0.365 to 1.46 µM) | 0.25 to 1 (≈ 0.365 to 1.46 µM) | 0.25 to 1 (≈ 0.365 to 1.46 µM) | 1.01 to 2 (≈ 1.47 to 2.92 µM) | – | – | – | – | – | – |
| Cc1c(-n2nccn2)sc2c1c(=O)n(C(C)(C)C(=O)N1CCCC1)c(=O)n2C[C@H](OC1CCOCC1)c1cc(F)ccc1OCC1COC1 [Compound I-110] | 1 to 5 | 1 to 5 | 0.25 to 1 (≈ 0.359 to 1.44 µM) | 1.01 to 2 (≈ 1.45 to 2.87 µM) | 5 to 10 | 5 to 10 | 0.25 to 1 (≈ 0.359 to 1.44 µM) | 0.25 to 1 (≈ 0.359 to 1.44 µM) | 0.25 to 1 (≈ 0.359 to 1.44 µM) | 1.01 to 2 (≈ 1.45 to 2.87 µM) | – | – | – | – | – | – |
| Cc1c(-n2nccn2)sc2c1c(=O)n(C(C)(C)C(=O)NC(C)C)c(=O)n2C[C@H](OC1CCOCC1)c1cc(F)ccc1OCCO [Compound I-111] | 0.4 to 1 | 0.3 to 1 | 0.25 to 1 (≈ 0.38 to 1.52 µM) | 0.06 to 0.249 (≈ 0.0911 to 0.378 µM) | 1 to 5 | 1 to 5 | 0.25 to 1 (≈ 0.38 to 1.52 µM) | 0.06 to 0.249 (≈ 0.0911 to 0.378 µM) | 0.25 to 1 (≈ 0.38 to 1.52 µM) | 0.25 to 1 (≈ 0.38 to 1.52 µM) | – | – | – | – | – | – |
